Measured values: publication PMC11068671, “New-generation biofilm effective antimicrobial peptides and a real-time anti-biofilm activity assay: CoMIC” (Applied Microbiology and Biotechnology, 2024)
Values after ≈ are worked out from the molar mass of the structure shown. Non-standard residues stand in square brackets, D forms with d. Residues, ends and D or L forms follow the SMILES beside them.

Assays:
MRSA biofilm [1] = test: Antibiofilm activity, CoMIC method; assay type: cell-based, Methicillin-resistant S. aureus; conditions: peptides added just before the start of biofilm formation
Protocol: Ninety microliters of 0.5 McF Methicillin-resistant S. aureus (MRSA) (1.5×10^8 CFU/mL) in Congo Red Broth media with fructose was transferred into wells. Plates were incubated at 37°C. At the time just before the start of biofilm formation as optimized in Fig. 4, 10 µL of 1:2 serial dilutions of the antimicrobial peptides (2560–0 µg/mL) was added in wells. So that, final concentrations of peptides were 256–0 µg/mL. Incubation of media continued overnight. Then, wells were evaluated according to their black color formation.

MRSA = assay type: cell-based, Methicillin-Resistant S. aureus
Excerpt: (§1) NET1, NET2, NET3, and NET4 peptide antibiotics were used in the experiments. For the purpose of the study, both clinical isolates Methicillin-Resistant S. aureus (MRSA), Vancomycin-resistant Enterococcus (VRE), E. coli ER2566, E. coli 13846 bacteria and ATCC strains S. aureus and E. coli bacteria were used in the MIC study. All strains used in this study have been deposited in a strain collection of the Research Laboratory of Acibadem Mehmet Ali Aydinlar University. For experiment 0.5 McFarland bacterial suspension was prepared in Müeller Hinton Broth (MHB) media. In the 96-well plate, serial dilutions of peptide antibiotics starting from 512 to 0 μg/mL were made in MHB media and added 5 µl of bacterial suspensions. After incubated overnight at 37°C, results were evaluated according to turbidity (Teh et al. [2017]). Ampicillin was used as positive controls.

E. coli ATCC25922 = assay type: cell-based
Excerpt: as §1

S. aureus ATCC29213 = assay type: cell-based
Excerpt: as §1

E. coli ER2566 = assay type: cell-based
Excerpt: as §1

S. aureus ATCC25923 = assay type: cell-based
Excerpt: as §1

E. coli NTCC13846 = assay type: cell-based
Excerpt: as §1

VRE = assay type: cell-based, Vancomycin-resistant Enterococcus
Excerpt: as §1

Proteinase K = Proteinase K (Parengyodontium album, UniProt P06873); test: Protease resistance, Proteinase K treatment with HPLC analysis; assay type: in vitro ADME; conditions: analytical HPLC
Chain of Proteinase K (P06873 106-384): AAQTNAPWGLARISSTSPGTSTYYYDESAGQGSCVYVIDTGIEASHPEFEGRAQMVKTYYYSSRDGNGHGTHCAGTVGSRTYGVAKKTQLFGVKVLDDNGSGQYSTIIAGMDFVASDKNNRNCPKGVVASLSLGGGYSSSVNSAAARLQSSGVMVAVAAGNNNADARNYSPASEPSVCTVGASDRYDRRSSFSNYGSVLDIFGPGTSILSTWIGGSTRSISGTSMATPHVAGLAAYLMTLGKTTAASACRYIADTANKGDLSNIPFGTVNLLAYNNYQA
Protocol: Proteinase K was used for testing the resistance of the designed peptides to proteases, since Proteinase K, a serine protease with broad-spectrum cleavage activity that preferentially cleaves aliphatic and aromatic amino acid residues, is widely used in the literature to determine the protease resistance of antimicrobial peptides (Lucio et al. [2017], Wang et al. [2019]). Afterwards, HPLC characterization was performed to understand the effect of Proteinase K on peptides.

erythrocytes = assay type: cell-based
Protocol: Hemolytic activity assays were carried out using erythrocytes, using triton X-100 as lysis control agent. Hemolytic activities were analyzed by reading each well with a plate reader spectrophotometer device at 414 nm and the % lysis rate was calculated in Microsoft Excel according to the following formula (Eren et al. [2008]). Lysis%=[OD414-OD414blank]/[OD414totallysis-OD414blank]×100

MRSA biofilm [2] = test: Antibiofilm activity, conventional crystal violet (CV) method; assay type: cell-based, Methicillin-resistant S. aureus; conditions: for concentration that could be enough to inhibit the biofilms completely: allowing for deviation of about 16.7 in non-specific CV binding; for Peptide concentration inhibiting the biofilm at 100%, Crystal Violet: peptides added at the very beginning of culture
Protocol: There was 90 µL of 10^6 CFU/mL MRSA in MHB media with fructose transferred into wells. Then, 10 µL of 1:2 serial dilutions of the antimicrobial peptides (1280–0 µg/mL) was added in wells. So that, final concentrations of peptides were 128–0 µg/mL. Plates were incubated at 37°C overnight. After overnight incubation, they were analyzed with conventional CV method. For this purpose, the bacterial cultures were removed, and wells were washed with distilled water. 200 µl of 1% CV dye was added to each well and incubated at room temperature for 15 min in the dark. Then, CV dye was removed, and wells were washed with water. After dried the plate in an oven at 45–50°C, 33% acetic acid was added into wells to dissolve the dye and wells were spectrophotometrically read by Varioscan (Thermo, USA) at 590 nm (Stepanović et al. [2000]). Biofilm inhibiton rates (%) were calculated by the following formula (Liu et al. [2021]): (1-A590ofwellstreatedwithpeptides/[…])×100
Before this calculation, the values obtained from all wells were subtracted from the value from the empty wells (Blank).

in vitro = assay type: cell-based
Excerpt: (§2) MTT Cell Proliferation Kit (Sigma), a colorimetric method, was used for this test to evaluate the damage that peptides can cause in eukaryotic cells and all cell lines used in this study have been deposited in a collection of the Research Laboratory of Acibadem Mehmet Ali Aydinlar University. The cell lines of 3T3 (ATCC CRL-1658) and HaCaT (ATCC PCS-200-011) were revived under appropriate culture conditions and made ready for the experiment. The final concentration of peptides reached 64 to 0.5 μg/mL. Samples were worked in triplicates for each concentration. Cells incubated without peptide-treatment under the same conditions were used as a control. Magainin II, a known natural AMP that has no cytotoxic effects, was used as a positive control (Bacalum and Radu [2015]). The results were analyzed by reading them with a 96-well plate reader at 550 and 690 nm.

HaCaT cell line = test: in vitro; assay type: cell-based
Excerpt: as §2

3T3 cell line = test: in vitro; assay type: cell-based
Excerpt: as §2

S. aureus 29213 biofilm [3] = test: Real-time monitoring of antibiofilm activity, CoMIC method; assay type: cell-based
Protocol: (§3) 1:2 serial dilutions of ciprofloxacine (200–0 µg/mL) and sodium hypochlorite (5–0%) were prepared in Congo Red Broth media with sucrose. S. aureus 29213 were added into culture media with a final concentration of 1×10^6 Colony-forming unit/mL (CFU/mL). All cultures were performed as triplicate and incubated at 37°C overnight and fluorescence measurements were conducted by using Varioscan (Thermo, USA). The excitation/emission wavelengths were used as 525/625 nm. As a replica plate, bacteria in the same broth media, except Congo Red were cultured and analyzed with conventional Crystal Violet (CV) method. For this purpose, the bacterial cultures were removed, and wells were washed with distilled water. There was 200 µl of 1% CV dye added to each well and incubated at room temperature for 15 min in the dark. Then, CV dye was removed, and wells were washed with water. After the plate was dry, 33% acetic acid was added into wells to dissolve the dye and wells were spectrophotometrically read by Varioscan (Thermo, USA) at 590 nm (Stepanović et al. [2000]).

S. aureus 29213 biofilm [4] = test: Antibiofilm activity, crystal violet (CV) replica plate; assay type: cell-based; conditions: CV method
Protocol: as §3

[5] = S. aureus 29213, added at the very beginning of the biofilm culture
[6] = S. aureus 29213, added just before the start of biofilm formation
[7] = S. aureus 29213, added in the very beginning
[8] = S. aureus 29213, added just before biofilm formation

Row | Compound | Peptide concentration inhibiting the biofilm at 100%, CoMIC (MRSA biofilm [1]) [µg/mL] | MIC (MRSA) [µg/mL] | MIC (E. coli ATCC25922) [µg/mL] | MIC (S. aureus ATCC29213) [µg/mL] | MIC (E. coli ER2566) [µg/mL] | MIC (S. aureus ATCC25923) [µg/mL] | MIC (E. coli NTCC13846) [µg/mL] | MIC (VRE) [µg/mL] | resistance to proteases (HPLC after proteinase K treatment) (Proteinase K) | therapeutic index for hemolytic activities (erythrocytes) | concentration that could be enough to inhibit the biofilms completely (MRSA biofilm [2]; CV method) | Peptide concentration inhibiting the biofilm at 100%, Crystal Violet (MRSA biofilm [2]) [µg/mL] | IC50 (in vitro; human) [µg/mL] | IC50 (in vitro; mouse) [µg/mL] | IC50 value as times the MIC value (HaCaT cell line) | therapeutic index for cytotoxic activities (HaCaT cell line) | therapeutic index for cytotoxic activities (3T3 cell line) | HC50 value as times the MIC value (erythrocytes) | MIC for biofilms (S. aureus 29213 biofilm [3]; [5]) | MIC for biofilms (S. aureus 29213 biofilm [3]; [6]) | other results
1 | CC(C)C[C@@H](NC(=O)[C@H](N)CCCNC(=N)N)C(=O)N[C@H](CC(C)C)C(=O)N[C@H](CC(C)C)C(=O)N[C@H](CCCNC(=N)N)C(=O)N[C@H](CC(C)C)C(=O)N[C@H](CC(C)C)C(=O)N[C@H](CCCNC(=N)N)C(=O)N[C@H](CCCNC(=N)N)C(=O)N[C@H](CC(C)C)C(=O)N[C@H](CC(C)C)C(=O)N[C@H](CCCNC(=N)N)C(=O)N[C@H](CC(C)C)C(=O)N[C@H](CC(C)C)C(=O)N[C@H](CC(C)C)C(=O)N[C@H](CCCNC(=N)N)C(N)=O [NET4, RLLLRLLRRLLRLLLR-NH2] (H-[dR][dL][dL][dL][dR][dL][dL][dR][dR][dL][dL][dR][dL][dL][dL][dR]-NH2; N-terminus assumed) | >256 | 16 (≈ 7.67 µM) | 8 (≈ 3.84 µM) | 16 (≈ 7.67 µM) | 1 (≈ 0.479 µM) | 16 (≈ 7.67 µM) | 32 (≈ 15.3 µM) | 2 (≈ 0.959 µM) | not fractionated by proteases | 4 | 64 µg/mL | 128 | > 128 | > 128 | 4-16 times | 8 | 8 | – | – | – | cytotoxicity at 64 µg/ml (in vitro; human): > 50%
2 | CC(C)C[C@H](NC(=O)[C@H](N)CCCNC(=N)N)C(=O)N[C@@H](CC(C)C)C(=O)N[C@@H](CC(C)C)C(=O)N[C@H](CCCNC(=N)N)C(=O)N[C@@H](CC(C)C)C(=O)N[C@@H](CC(C)C)C(=O)N[C@H](CCCNC(=N)N)C(=O)N[C@H](CCCNC(=N)N)C(=O)N[C@@H](CC(C)C)C(=O)N[C@@H](CC(C)C)C(=O)N[C@H](CCCNC(=N)N)C(=O)N[C@@H](CC(C)C)C(=O)N[C@@H](CC(C)C)C(=O)N[C@@H](CC(C)C)C(=O)N[C@H](CCCNC(=N)N)C(N)=O [NET3, RLLLRLLRRLLRLLLR-NH2] (H-[dR]LLL[dR]LL[dR][dR]LL[dR]LLL[dR]-NH2; N-terminus assumed) | 128 | 2 (≈ 0.959 µM) | 4 (≈ 1.92 µM) | 2 (≈ 0.959 µM) | 0.5 (≈ 0.24 µM) | 2 (≈ 0.959 µM) | 2 (≈ 0.959 µM) | 0.5 (≈ 0.24 µM) | not fractionated by proteases | 32 | less than 1 µg/mL | 4 | 64 (≈ 30.7 µM) | 32 (≈ 15.3 µM) | 16-32 times | 32 | 16 | 16–32 times | – | – | –
3 | [Na+].[O-]Cl [sodium hypochlorite] | – | – | – | – | – | – | – | – | – | – | – | – | – | – | – | – | – | – | 1.25% | 1.25% | MIC for biofilms (S. aureus 29213 biofilm [4]; [7]): 1.25%; MIC for biofilms (S. aureus 29213 biofilm [4]; [8]): 5%
4 | O=C(O)c1cn(C2CC2)c2cc(N3CCNCC3)c(F)cc2c1=O [ciprofloxacin] | – | – | – | – | – | – | – | – | – | – | – | – | – | – | – | – | – | – | 50 µg/mL | > 200 µg/mL | MIC for biofilms (S. aureus 29213 biofilm [4]; [7]): 12.5 µg/mL; MIC for biofilms (S. aureus 29213 biofilm [4]; [8]): > 200 µg/mL
5 | CC(C)C[C@H](NC(=O)[C@H](CC(C)C)NC(=O)[C@H](CC(C)C)NC(=O)[C@H](CCCNC(=N)N)NC(=O)[C@H](CC(C)C)NC(=O)[C@H](CC(C)C)NC(=O)[C@H](CCCNC(=N)N)NC(=O)[C@H](CCCNC(=N)N)NC(=O)[C@H](CC(C)C)NC(=O)[C@H](CC(C)C)NC(=O)[C@H](CCCNC(=N)N)NC(=O)[C@H](CC(C)C)NC(=O)[C@H](CC(C)C)NC(=O)[C@H](CC(C)C)NC(=O)[C@@H](N)CCCNC(=N)N)C(=O)N[C@@H](CCCNC(=N)N)C(N)=O [NET2, RLLLRLLRRLLRLLLR-NH2] (H-RLLLRLLRRLLRLLLR-NH2; N-terminus assumed) | >256 | 64 (≈ 30.7 µM) | 64 (≈ 30.7 µM) | 64 (≈ 30.7 µM) | 4 (≈ 1.92 µM) | 32 (≈ 15.3 µM) | 64 (≈ 30.7 µM) | 2 (≈ 0.959 µM) | completely degraded | 1 | – | 128 | > 128 | > 128 | 2-4 times | 2 | 2 | 2–8 times | – | – | concentration that provided over 50% biofilm inhibition (MRSA biofilm [2]; CV method): 64 µg/mL
